Laboratory results reported in the NIST ThermoML archive (doi:10.1016/j.tca.2005.04.030).
Numbers after ± are expanded uncertainties.

Tests used:
[1] = 101.33 kPa, Liquid; for mass density: 298.1 K, Vibrating tube method; for speed of sound: 298.15 K, Anton Paar DSA 48
[2] = refractive index (Na D-line) (dimensionless); details: 298.1 K, 101.33 kPa, Liquid

| mass density [1] | speed of sound [1] | refractive index ([2]; ATAGO RX-1000) | refractive index ([2]; Anton Paar DSA 48) | SMILES |
| --- | --- | --- | --- | --- |
| 785.22 ± 0.25 kg/m3 | 1143 ± 2 m/s | 1.3592 ± 0.00011 |  | CCO [ethanol] |
| 786.63 ± 0.25 kg/m3 | 1101 ± 2 m/s | 1.3264 ± 0.0002 |  | CO [methanol] |
| 757.57 ± 0.17 kg/m3 | 1113 ± 2 m/s |  | 1.3917 ± 5e-05 | CCCCOC(C)(C)C [butane, 1-(1,1-dimethylethoxy)-] |
|  |  | 1.3325 ± 8e-05 |  | O [water] |
